According to patent US8546452B2, “S1P3 receptor antagonist” (TOA Eiyo Ltd., priority 2005, dated 2013):
Read-outs that look alike come from different tables or passages of the source.

What was measured:
hS1P3 [1] = molecular target: T1, hS1P3 (Homo sapiens, UniProt Q99500); test: Suppressive effect on S1P-induced increase in [Ca2+]i, CHO-K1 cells expressing S1P3 (Fura 2-AM), IC50; format: cell-based; details: S1P solution 50 nmol/L, read-out: hS1P3 suppression IC50
hS1P3 [2] = molecular target: T1, hS1P3; test: S1P receptor subtype selectivity, S1P-induced [Ca2+]i increase in CHO-K1 cells stably expressing S1P3 (Calcium3); format: cell-based
Description: (§1) The selectivity to the S1P receptor subtype was examined in the following manner. […] Furthermore, a Calcium3 (Molecular Devices, Inc.) solution prepared in HBSS (+) buffer, which is a fluorescent Ca^2+ indicator, was added, and the cells were incubated for 60 minutes at 37° C. Then, 100 μL of a test compound solution prepared to a concentration of 2×10 μmol/L was added, and the cells were incubated for 20 minutes at 37° C. […] The indicator was prepared and used according to the instruction manual.
(§2) A solution of the test compound was prepared by dissolving each of the test compounds in DMSO to a concentration of 10 mmol/L, and then diluting the solution with an HBSS (+) buffer solution to the predetermined concentration. […] The measurement values were obtained by subtracting the maximum RFU value for the blind test from the maximum RFU values for control or each test compounds. A decrease in the measurement value for the test compound relative to the control was indicated as the suppression rate (%), from which the IC50 value was calculated.

hS1P1 = molecular target: T2, hS1P1 (Homo sapiens, UniProt P21453); test: S1P receptor subtype selectivity, S1P-induced [Ca2+]i increase in CHO-K1 cells stably expressing S1P1 (Calcium3); format: cell-based
T2 construct: expressed in transfected cells
Description: as §1, §2

hS1P2 = molecular target: T3, hS1P2 (Homo sapiens, UniProt O95136); test: S1P receptor subtype selectivity, S1P-induced [Ca2+]i increase in CHO-K1 cells stably expressing S1P2 (Calcium3); format: cell-based
T3 construct: expressed in transfected cells
Description: as §1, §2

[3] = Time to reach the maximum blood concentration after oral administration; format: in vivo; details: oral administration (1 mg/kg)
isolated heart of rat = test: Effect on the coronary blood flow rate in isolated heart of rat (Langendorff perfusion); details: S1P 10^−9 M to 10^−7 M in perfusion solution
Description: A male SD rat weighing about 350 g was anesthetized with pentobarbital sodium (50 mg/kg), and heparin (1000 U/kg) was administered through the lower limb vein. The heart was rapidly isolated and connected to a Langendorff perfusion apparatus. […] The temperature of the perfusion solution was set at 37±0.2° C., and gassed with a gas mixture (95% O2 and 5% CO2) such that the oxygen partial pressure was 550 mmHg or more. The coronary perfusion flow rate was measured with an electromagnetic blood flow meter through a probe installed in the circulation pathway. Furthermore, the effects on the heart function were investigated using the left ventricular developed pressure (LVDP), the first derivative of the left ventricular pressure (LV±dp/dt) and the heart rate (HR) as indices. The LVDP was determined by subtracting the left ventricular end diastolic pressure (LVEDP) from the left ventricular systolic pressure (LVSP), which was detected with a latex balloon inserted into the left ventricle, and measured with a pressure strain meter via a pressure transducer. […] Signals measured with the pressure strain meter were conducted to a differential meter and a heart rate meter, to measure the first derivative of the left ventricular pressure (LV±dp/dt) and the heart rate (HR). […]

[4] = test system: FTY720-induced bradycardia; test: Effect on hemodynamic changes (bradycardia) caused by FTY720 in anesthetized rat; format: in vivo; details: FTY720 1 mg/kg intravenously
Description: Thus, the effects of the compound of the present invention on the FTY720-induced bradycardia were examined.
A rat was anesthetized with pentobarbital (50 mg/kg, intraperitoneal administration), and then catheters for drug administration and blood pressure measurement were inserted into the lower limb vein and the carotid artery, respectively. The blood pressure was measured with a strain pressure amplifier via a pressure transducer. The heart rate was measured with a tachometer by means of the electrocardiographic wave. The FTY720 used was purchased from Cayman Chemical Co.
FTY720 (1 mg/kg) was intravenously administered, and the effects thereof on hemodynamics were investigated by measuring the blood pressure and the heart rate at 0 minute (immediately before administration), and 10, 20 and 30 minutes immediately after the intravenous administration.

[5] = 10 μM, CHO-K1 stably expressing S1P3, S1P solution 50 nmol/L, Calcium3, read-out: Suppression rate at 10 μM (%) hS1P3
[6] = 10 μM, CHO-K1 stably expressing S1P1, S1P solution 100 nmol/L, Calcium3, read-out: Suppression rate at 10 μM (%) hS1P1
[7] = 10 μM, CHO-K1 stably expressing S1P2, S1P solution 100 nmol/L, Calcium3, read-out: Suppression rate at 10 μM (%) hS1P2
[8] = CHO-K1, read-out: Suppression rate at 10 μM (%) hS1P3
[9] = CHO-K1, read-out: Suppression rate at 10 μM (%) hS1P1
[10] = CHO-K1, read-out: Suppression rate at 10 μM (%) hS1P2

T2 sequence (P21453 whole entry): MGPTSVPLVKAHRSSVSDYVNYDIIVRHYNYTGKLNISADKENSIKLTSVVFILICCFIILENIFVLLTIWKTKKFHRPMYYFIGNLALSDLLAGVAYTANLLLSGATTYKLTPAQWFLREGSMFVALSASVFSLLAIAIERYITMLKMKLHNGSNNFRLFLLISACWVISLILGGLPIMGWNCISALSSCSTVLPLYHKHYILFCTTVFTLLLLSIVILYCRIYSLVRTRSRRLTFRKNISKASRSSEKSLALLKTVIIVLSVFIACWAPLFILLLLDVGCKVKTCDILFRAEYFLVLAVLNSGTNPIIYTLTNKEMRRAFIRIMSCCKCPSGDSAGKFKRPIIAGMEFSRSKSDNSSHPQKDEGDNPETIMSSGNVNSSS
T1 sequence (Q99500 whole entry): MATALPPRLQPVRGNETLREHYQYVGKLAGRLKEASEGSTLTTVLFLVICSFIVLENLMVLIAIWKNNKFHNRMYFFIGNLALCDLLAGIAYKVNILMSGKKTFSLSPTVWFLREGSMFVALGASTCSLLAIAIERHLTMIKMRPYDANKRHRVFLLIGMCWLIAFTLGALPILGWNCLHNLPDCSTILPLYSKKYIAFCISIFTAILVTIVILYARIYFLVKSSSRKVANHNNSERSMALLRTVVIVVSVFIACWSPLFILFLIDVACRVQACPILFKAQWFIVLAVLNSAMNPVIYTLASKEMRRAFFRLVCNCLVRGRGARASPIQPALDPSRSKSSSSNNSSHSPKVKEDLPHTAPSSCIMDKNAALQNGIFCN
T3 sequence (O95136 whole entry): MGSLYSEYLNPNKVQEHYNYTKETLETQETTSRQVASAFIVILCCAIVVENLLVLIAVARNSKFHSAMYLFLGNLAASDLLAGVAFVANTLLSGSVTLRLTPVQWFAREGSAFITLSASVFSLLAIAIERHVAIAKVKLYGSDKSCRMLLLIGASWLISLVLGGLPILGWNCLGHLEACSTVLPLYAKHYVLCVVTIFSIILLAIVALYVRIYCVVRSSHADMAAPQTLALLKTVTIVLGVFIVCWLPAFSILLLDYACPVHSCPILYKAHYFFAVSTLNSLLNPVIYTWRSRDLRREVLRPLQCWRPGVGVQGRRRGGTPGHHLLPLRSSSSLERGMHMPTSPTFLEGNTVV

| Compound | IC50 (hS1P3 [1]) [nM] | inhibition at 10 µM (hS1P3 [2]; [5]) [%] | inhibition at 10 µM (hS1P1; [6]) [%] | inhibition at 10 µM (hS1P2; [7]) [%] | inhibition at 10 µM (hS1P1; [9]) [%] | inhibition at 10 µM (hS1P2; [10]) [%] | other results |
| --- | --- | --- | --- | --- | --- | --- | --- |
| O=C(C(=NNc1ccc(Cl)cc1)Nc1cccc(F)c1F)c1ccccc1 [Compound 3, 2-(4-chlorophenylhydrazono)-2-(2,3-difluorophenylamino)acetophenone] | 14700 | 68.5 | 18.6 | -0.4 | – | – | – |
| O=C(C(=NNc1ccc(Cl)cc1)Nc1cccc(F)c1)N1CCCCC1 [Compound 21, [1-(4-Chlorophenylhydrazono)-1-(3-fluorophenylamino)acetyl]piperidine] | 26800 | 91.1 | 17.5 | 13.7 | – | – | – |
| CC(C)(C)C(=O)/C(=N/c1ccc(Cl)cc1)NNc1ccc(Cl)cc1 [Compound 33, 1-(4-chlorophenylamino)-1-(4-chlorophenylhydrazono)-3,3-dimethyl-2-butanone] | – | – | – | – | – | – | time to reach the maximum blood concentration [3]: 4 h |
| CC(C)(C)C(=O)C(=NNc1ccc(F)cc1)Nc1ccc(F)cc1 [Compound 54, 1-(4-fluorophenylamino)-1-(4-fluorophenylhydrazono)-3,3-dimethyl-2-butanone] | 4380 | 101 | 22 | 16 | – | – | – |
| CC(C)(C)C(=O)C(=NNc1ccc(C(F)(F)F)cc1)Nc1ccc(F)cc1 [Compound 67, 1-(4-fluorophenylamino)-1-(4-trifluoromethylphenylhydrazono)-3,3-dimethyl-2-butanone] | 8200 | 90.2 | 20.8 | 15.5 | – | – | – |
| CC(C)(C)C(=O)C(=NNc1ccc(Br)cc1)Nc1ccc(F)cc1 [Compound 74, 1-(4-bromophenylhydrazono)-1-(4-fluorophenylamino)-3,3-dimethyl-2-butanone] | 2320 | 105 | 20.4 | 23.2 | – | – | – |
| CC(C)(C)C(=O)C(=NNc1ccc(Br)cc1)Nc1ccc(Br)cc1 [Compound 76, 1-(4-bromophenylamino)-1-(4-bromophenylhydrazono)-3,3-dimethyl-2-butanone] | 1660 | 103 | 5.1 | 26.1 | – | – | – |
| C#Cc1ccc(NC(=NNc2ccc(Br)cc2)C(=O)C(C)(C)C)cc1 [Compound 78, 1-(4-bromophenylhydrazono)-1-(4-ethynylphenylamino)-3,3-dimethyl-2-butanone] | 970 | – | – | – | 25.1 | 20.8 | inhibition at 10 µM (hS1P3 [2]; [8]): 105% |
| C#Cc1ccc(NC(=NNc2ccc(Cl)cc2)C(=O)CCCC)cc1 [Compound 111, 1-(4-chlorophenylhydrazono)-1-(4-ethynylphenylamino)-2-hexanone] | 1550 | – | – | – | -16.6 | 23.1 | inhibition at 10 µM (hS1P3 [2]; [8]): 95.1% |
| CCC(CC)C(=O)C(=NNc1ccc(Cl)cc1)Nc1ccc(F)cc1 [Compound 112, 1-(4-chlorophenylhydrazono)-1-(4-fluorophenylamino)-3-ethyl-2-pentanone] | 1660 | 86.6 | 22.1 | 12.8 | – | – | – |
| C#Cc1ccc(NC(=NNc2ccc(Cl)cc2)C(=O)c2ccco2)cc1 [Compound 117, 1-(4-chlorophenylhydrazono)-1-(4-ethynylphenylamino)-2-(2-furyl)-2-ethanone] | 2340 | – | – | – | 20.4 | 31.6 | – |
| C#Cc1ccc(NC(=NNc2ccc(Cl)cc2)C(=O)C(C)(C)CCl)cc1 [Compound 122, 4-chloro-1-(4-chlorophenylhydrazono)-1-(4-ethynylphenylamino)-3,3-dimethyl-2-butanone] | 3860 | – | – | – | 4.9 | 7.1 | inhibition at 10 µM (hS1P3 [2]; [8]): 89.9% |
| C#Cc1ccc(NN=C(Nc2cccc(F)c2)C(=O)C(C)(C)C)cc1 [Compound 131, 1-(3-fluorophenylamino)-1-(4-ethynylphenylhydrazono)-3,3-dimethyl-2-butanone] | 750 | – | 15.7 | 24.7 | – | – | – |
| CC(C)(C)C(=O)C(=NNc1ccc(Cl)cc1)Nc1cccc(Cl)c1 [Compound 133, 1-(3-chlorophenylamino)-1-(4-chlorophenylhydrazono)-3,3-dimethyl-2-butanone] | 840 | – | – | – | 16.7 | 37.7 | – |
| CC(C)(C)C(=O)C(=NNc1ccc(Cl)cc1)Nc1ccc(Br)cc1 [Compound 134, 1-(4-bromophenylamino)-1-(4-chlorophenylhydrazono)-3,3-dimethyl-2-butanone] | 870 | 96.5 | 36.4 | 29.8 | – | – | – |
| C#Cc1ccc(NC(=NNc2ccc(Cl)cc2)C(=O)C(C)(C)C)cc1 [Compound 136, 1-(4-chlorophenylhydrazono)-1-(4-ethynylphenylamino)-3,3-dimethyl-2-butanone] | 990 | – | – | – | 40.3 | 33.7 | inhibition at 10 µM (hS1P3 [2]; [8]): 94.3% |
| CCC(CC)C(=O)C(=NNc1ccc(Cl)cc1)Nc1cccc(Cl)c1 [Compound 137, 1-(3-chlorophenylamino)-1-(4-chlorophenylhydrazono)-3-ethyl-2-pentanone] | 1590 | – | – | – | 35.3 | 30.1 | – |
| C#Cc1ccc(NN=C(Nc2ccc(C#C)cc2)C(=O)C(C)(C)C)cc1 [Compound 138, 1-(4-ethynylphenylamino)-1-(4-ethynylphenylhydrazono)-3,3-dimethyl-2-butanone] | 1620 | – | – | – | 14.1 | 8 | inhibition at 10 µM (hS1P3 [2]; [8]): 79.9% |
| CC(C)(C)CC(=O)C(=NNc1ccc(Cl)cc1)Nc1ccc(Cl)cc1 [Compound 139, 1-(4-chlorophenylamino)-1-(4-chlorophenylhydrazono)-4,4-dimethyl-2-pentanone] | 1700 | – | – | – | 14.9 | 40.6 | – |
| CC(C)(C)CC(=O)C(=NNc1ccc(Cl)cc1)Nc1cccc(Cl)c1 [Compound 140, 1-(3-chlorophenylamino)-1-(4-chlorophenylhydrazono)-4,4-dimethyl-2-pentanone] | 1990 | – | – | – | 18.3 | 26.2 | – |
| CCCCCCCCCCCCC/C=C/[C@@H](O)[C@@H](N)COP(=O)(O)O [Compound S1P, sphingosine 1-phosphate] | – | – | – | – | – | – | coronary blood flow rate, effect of S1P (isolated heart of rat): significantly decreased |
| CCCCCCCCc1ccc(CCC(N)(CO)CO)cc1 [FTY720] | – | – | – | – | – | – | heart rate, effect of FTY720 [4]: reduced the heart rate and induced bradycardia |
